Laboratory results as given in the supplement of paper PMC10307832.

Columns and labels:
Test in all cases: relative viability (nuclei count vs DMSO), 5 days (fraction); higher = more cells survive
[1] = compound: CC1=CC(=CC=C1)NC2=NC(=CS2)C3=CC=NC=C3 + Cc1nc(NC(=O)N2CCC[C@H]2C(N)=O)sc1-c1ccnc(C(C)(C)C(F)(F)F)c1 [Alpelisib] (partner 2 µM)
Method in brief: (§1)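 Lung cancer cell lines in 1536-well plates were dosed by pin tool the day after seeding, either with one drug alone or with a fixed anchor-drug dose plus five library-drug doses (not always all listed) in √10 steps. After 5 days, cells were fixed and their nuclei stained in one step (final 0.05% Triton X-100, 1% formaldehyde, 1 ug/ml Hoechst), then counted on 4× images. Relative viability is the nuclei count in treated wells divided by that in vehicle wells. Values are medians of duplicate plates.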

[2] = compound: CC1=CC(=CC=C1)NC2=NC(=CS2)C3=CC=NC=C3 + O=C(c1cc(Cc2n[nH]c(=O)c3ccccc23)ccc1F)N1CCN(C(=O)C2CC2)CC1 [Olaparib] (partner 8 µM)
Method in brief: as §1

Masitinib + Bortezomib = compound: Cc1ccc(NC(=O)c2ccc(CN3CCN(C)CC3)cc2)cc1Nc1nc(-c2cccnc2)cs1 [Masitinib] + CC(C)C[C@H](NC(=O)[C@H](Cc1ccccc1)NC(=O)c1cnccn1)B(O)O [Bortezomib] (partner 0.002 µM)
Method in brief: as §1

Masitinib + Linsitinib = compound: Cc1ccc(NC(=O)c2ccc(CN3CCN(C)CC3)cc2)cc1Nc1nc(-c2cccnc2)cs1 [Masitinib] + C[C@]1(O)C[C@@H](c2nc(-c3ccc4ccc(-c5ccccc5)nc4c3)c3c(N)nccn32)C1 [Linsitinib] (partner 1 µM)
Method in brief: as §1

Cell Line | relative viability ([1]; first compound 0.08 µM) | relative viability ([1]; first compound 0.253 µM) | relative viability ([1]; first compound 0.8 µM) | relative viability ([1]; first compound 2.53 µM) | relative viability ([1]; first compound 8 µM) | relative viability ([2]; first compound 0.08 µM) | relative viability ([2]; first compound 0.253 µM) | relative viability ([2]; first compound 0.8 µM) | relative viability ([2]; first compound 2.53 µM) | relative viability ([2]; first compound 8 µM) | relative viability (Masitinib + Bortezomib; first compound 0.01 µM) | relative viability (Masitinib + Bortezomib; first compound 0.03162 µM) | relative viability (Masitinib + Bortezomib; first compound 0.1 µM) | relative viability (Masitinib + Bortezomib; first compound 0.3162 µM) | relative viability (Masitinib + Bortezomib; first compound 1 µM) | relative viability (Masitinib + Linsitinib; first compound 0.01 µM) | relative viability (Masitinib + Linsitinib; first compound 0.03162 µM) | relative viability (Masitinib + Linsitinib; first compound 0.1 µM) | relative viability (Masitinib + Linsitinib; first compound 0.3162 µM) | relative viability (Masitinib + Linsitinib; first compound 1 µM)
LOU-NH91 | 0.617 | 0.686 | 0.59 | 0.698 | 0.592 | 0.8 | 0.862 | 0.889 | 0.887 | 0.855 | 0.481 | 0.468 | 0.506 | 0.492 | 0.49 | 0.909 | 0.893 | 0.972 | 0.928 | 0.911
NCI-H322M | 0.747 | 0.868 | 0.771 | 0.903 | 0.853 | 0.687 | 0.76 | 0.725 | 0.613 | 0.575 | 1.23 | 1.11 | 1.26 | 1.21 | 1.17 | 0.975 | 0.736 | 0.91 | 0.681 | 0.912
NCI-H520 | 0.741 | 0.855 | 0.726 | 1.09 | 1.02 | 0.384 | 0.325 | 0.391 | 0.314 | 0.288 | 0.598 |  | 0.629 | 0.686 | 0.774 | 1.12 |  | 1.15 | 0.97 | 0.915
NCI-H661 | 0.469 | 0.462 | 0.971 | 0.724 | 1.01 | 0.736 | 0.803 | 0.769 | 0.75 | 0.642 | 0.867 | 0.74 | 0.927 | 0.761 | 0.585 | 0.653 | 0.569 | 0.577 | 0.584 | 0.428
NCI-H727 | 0.44 | 0.497 | 0.53 | 0.508 | 0.469 | 0.67 |  | 0.679 |  | 0.743 | 0.846 | 0.847 | 1.02 | 1.04 | 0.744 | 0.228 | 0.268 | 0.297 | 0.281 | 0.196
NCI-H1755 | 0.869 | 0.856 | 0.826 | 0.815 | 0.548 | 0.796 | 0.829 | 0.769 | 0.598 | 0.533 |  | 0.966 | 0.832 | 0.907 | 0.816 |  | 0.976 | 1 | 1.02 | 0.955
NCI-H1299 | 1.04 | 1.01 | 1.05 | 1.05 | 0.988 | 1.01 | 1 | 0.889 | 0.904 | 0.854 | 0.985 | 1.05 | 0.995 | 1.01 | 1 | 0.778 | 1.02 | 1.06 | 1.09 | 0.879
H3255 | 0.582 | 0.713 | 0.72 | 0.654 | 0.594 | 0.542 | 0.569 | 0.562 | 0.533 | 0.475 |  | 0.858 | 0.601 | 0.459 | 0.755 | 0.679 | 0.844 | 0.837 | 0.977 | 0.936
201T | 1 | 1.05 | 1.04 | 0.96 | 0.853 | 0.853 | 0.845 | 0.788 | 0.826 | 0.757 | 0.918 | 1.09 | 0.99 | 1.09 | 1.07 | 0.881 | 0.977 | 1.01 | 0.851 | 1.01
NCI-H2228 | 0.476 | 0.644 | 0.612 | 0.688 | 0.502 | 0.396 | 0.324 | 0.525 | 0.559 | 0.415 | 1.07 | 1.68 | 1.05 | 1.25 | 0.975 | 0.703 | 0.58 | 0.609 | 0.807 | 0.52
HOP-62 | 0.932 | 0.809 | 1.1 | 1.06 | 1.17 | 0.445 | 0.5 | 0.471 | 0.48 | 0.512 | 0.573 | 0.598 | 0.845 | 0.799 | 0.769 | 0.916 | 0.978 | 0.973 | 0.917 | 0.833
CAL-12T | 1.22 | 1.13 | 1.33 | 1.07 | 1.22 | 0.614 | 0.677 | 0.609 | 0.792 | 0.617 | 0.852 | 1.05 | 1.06 | 1.07 | 0.713 | 0.769 | 0.751 | 0.94 | 0.904 | 0.805
NCI-H596 | 0.421 | 0.402 | 0.35 | 0.412 | 0.401 | 0.674 | 0.546 | 0.673 | 0.6 | 0.613 | 1.09 | 1.06 | 1.2 | 1.01 | 1.23 | 1.21 | 0.98 | 1.05 | 1.14 | 1.05
NCI-H1792 | 0.628 | 0.523 | 0.567 | 0.443 | 0.589 | 0.312 | 0.307 | 0.248 | 0.255 | 0.32 | 0.759 | 0.387 | 0.945 | 0.994 | 1.01 | 0.504 | 0.224 | 0.533 | 0.454 | 0.529
NCI-H2085 | 0.887 | 1.02 | 0.946 | 0.833 | 0.705 | 0.844 | 0.784 | 0.757 | 0.769 | 0.587 | 0.87 | 0.99 | 1.03 | 1.27 | 1.06 | 0.787 | 0.914 | 0.955 | 1.01 | 0.726
NCI-H2023 | 0.616 | 0.506 | 0.561 | 0.516 | 0.563 | 0.42 | 0.543 | 0.38 | 0.388 | 0.286 | 0.734 | 0.967 | 0.79 | 0.862 | 0.879 | 0.597 | 0.681 | 0.703 | 0.613 | 0.597
